The values that follow come from patent US10744233B2, “Crystallization inhibitor compositions for implantable urological devices” (Innovative Surface Technologies, Inc., priority 2016, dated 2020).

A short description of data set [1]: Encrustation assay in artificial urine without bacteria. Particulars: two separate experiments (Table 3). As to the method:
Artificial urine solutions contained either:
The coatings were analyzed for encrustation.
In addition, both the Wet 1 and Dry POC coatings were analyzed for encrustation using the same procedure described previously.

Data set [2] can be described thus: Osteopontin elution assay (ELISA). Conditions: 1X PBS, 37° C. The format is physicochemical. On the procedure: Osteopontin Elution Assay
To determine the amount of osteopontin released, coated Parylene™ coated discs were placed in 2 mL of 1×PBS for up to 30 days. The buffer was exchanged at approximately 30 minutes, 1 hour, 1 day, 5 days, 10 days, 15 days, and 30 days. Eluted samples were refrigerated until assaying. Osteopontin was quantified using an Osteopontin ELISA kit (R &D Systems, Mpls, MN) following the kit's instructions.
Sample discs coated with either osteopontin loaded PLGA coatings or empty PLGA coatings were placed in 1×PBS for elution over 30 days at 37° C., with the elution buffer exchanged at days 1, 5, 10, 15, and 30.
Total release per disc was 0.3 ng osteopontin released over 30 days (6-mg PLGA coating/3 ng osteopontin loading per disc).
Background: An ELISA detects its analyte on a solid surface through an enzyme-linked reagent.

Consider `O=C(O)CC(O)(CC(=O)O)C(=O)O` [citric acid], for which, in data set [1], the “Reduction of encrustation compared to control empty PLGA” value is recorded as 26-48% and the “Reduction of encrustation compared to uncoated” value is “up to 66%”.

For “osteopontin: human osteopontin (R&D Systems), sialoprotein; in b151 it is released from the osteopontin-loaded PLGA coating”, the Osteopontin release period entry in data set [2] (30 days) was “released over the entire 30-day period”. In addition, the “Total osteopontin release per disc” value in data set [2] (over 30 days, 6-mg PLGA coating/3 ng osteopontin loading per disc) is given as 0.3 ng.
